Two molecules from patent publication US20050208088A1, “Pesticidal composition and method for pest control” (priority 2004, published 2005) can be followed below.

This test deals with thrips. Put plainly: Thrips control in cotton, seed treatment field trials (1) and (2). It is filed as in vivo, thrips on cotton. The conditions noted are these: for Adult Thrips 14 DAP / Immature Thrips 14 DAP / Immature Thrips 21 DAP: cotton DP 555 BR, seed treatment; for Adult Thrips 14 DAP / Immature Thrips 14 DAP: 14 days after planting; for Adult Thrips 14 DAP: number of adult thrips; for Immature Thrips 14 DAP / Immature Thrips 21 DAP: number of immature thrips; for Immature Thrips 21 DAP / Damage 21 DAP: 21 days after planting; for Damage 21 DAP: visual plant damage rating, scale 1 to 5 (1=no damage, 3=moderate damage, 5=severe damage). As to the method: (a) A base fungicide seed treatment formulation is prepared by diluting a concentrate containing 3.32% mefenoxam (CAS# 70630-17-0), 1.11% fludioxonil (CAS# 131341-86-1) and 6.64% azoxystrobin (CAS# 131860-33-8), into water as a carrier. […] Seed treated are allowed to air dry and shipped and stored at ambient temperature prior to planting (approximately two weeks). (b) A seed treatment formulation is prepared by diluting Cruiser® […] seed treatment insecticide (Syngenta Crop Protection, Inc), which contains 49% thiamethoxam and the base fungicide concentrate described in (a), into water as a carrier. […] Seed treated are allowed to air dry and shipped and stored at ambient temperature prior to planting (approximately two weeks). (c) An abamectin seed treatment formulation is prepared by diluting an abamectin […] seed treatment nematicide formulation containing 46.3% abamectin and the base fungicide concentrate (a), into water as a carrier. […] Seed treated were allowed to air dry and were shipped and stored at ambient temperature prior to planting (approximately two weeks). The above formulations of thiamethoxam and abamectin were combined together into water as a carrier and with the base fungicide (a). […] This formulation dilution was applied for one to two minutes at ambient temperature to approximately one kilogram of Delta and Pine Land cottonseed (DP 555 BR) in a Hege seed treater. Seed treated were allowed to air dry and were shipped and stored at ambient temperature prior to planting (approximately two weeks). Control (a) and treated cottonseed (b) (c) and (d) were planted in field plots in two separate trials (1) and (2) as follows: Cottonseed is sown (4 seeds per foot) in plots with dimensions of 2 rows (36 inch row spacing) by 30-feet in a randomized complete block layout consisting of an control check (a), abamectin plus a base fungicide (c), thiamethoxam plus a base fungicide (b) and the combination of thiamethoxam and abamectin plus a base fungicide (d). […] Thrips were collected from five random plants within each replication of each treatment by collecting thrips in alcohol and counting the numbers of thrips using a dissecting scope in the laboratory.

Turning to `CN1COCN(Cc2cnc(Cl)s2)/C1=N\[N+](=O)[O-]` [Thiamethoxam (b), thiamethoxam], the thrips control result (14 and 21 days after planting, cotton seed treatment) is “approximately 85%”. In addition, for the setting “Trial (1)”, the “Adult Thrips 14 DAP” value turned out to be 5 per five plants, the “Immature Thrips 14 DAP” value amounted to 13 per five plants, the “Immature Thrips 21 DAP” value turned out to be 20.25 per five plants and the “Damage 21 DAP” value is recorded as 3.3. For the same molecule, the “Immature Thrips 14 DAP” value (Trial (2)) came to 15 per five plants.
On to abamectin [Abamectin (c)], for which, where the note is “Trial (1)”, the “Adult Thrips 14 DAP” value is reported as 13 per five plants, the “Immature Thrips 14 DAP” value worked out at 39.25 per five plants, the “Immature Thrips 21 DAP” value is given as 50.5 per five plants and the “Damage 21 DAP” value stood at 4. Where the note is “Trial (2)”, the “Immature Thrips 14 DAP” value is reported as 71.5 per five plants. In addition, the “thrips control compared to the untreated check” value (trials 1 and 2, cotton seed treatment) is listed as ~50%.
